Assay results: article PMC12311725, “Identification of Ginsentide-like Peptides from Cacao Beans with Oxidative Stress Protection” (ACS Omega, 2025)
Where a SMILES comes first, the peptide text is derived from it. Bridges are numbered along the chain shown (N, C = ends). Where no end group is shown, it is not given here. The star is where a group is joined. 5FAM = O=C1OC2(c3ccc(O)cc3Oc3cc(O)ccc32)c2ccc(C(=O)*)cc21; Cam = NC(=O)C*

Assays:
HaCaT keratinocytes = assay: Live-cell confocal microscopy of internalization; assay type: cell-based, human; settings: 1 μM, 37 °C, 1 h, Z-stack confocal fluorescence
Description: HaCaT (human keratinocyte) cells were cultured in Dulbecco’s modification of Eagle’s medium (DMEM) supplemented with 10% fetal bovine serum and 100 U/mL penicillin and streptomycin. They were grown in a 5% CO2 humidified incubator at 37 °C
To examine the internalization of FAM-tC1 in living cells, the cells were seeded on an 8-well chamber slide (Ibidi). Prior to incubation with FAM-tC1, the cells were stained with […]. FAM-tC1 was incubated on cells in phenol red-free and serum-free medium for 1 h at 37 °C. The slides were washed gently with PBS three times, and the medium was replaced prior to imaging. The slides were observed by using a Zeiss LSM 980 confocal microscope.
8 Confocal image of fluorescent labeled FAM-tC1 in HaCaT keratinocytes. (A) 1 μM FAM-tC1 was incubated with HaCaT keratinocytes at 37 °C for 1 h, and Z-stack confocal analysis was performed. Green: FAM-tC1; Blue: Nucleus. The red outline indicates the region of interest (ROI) which is presented as a 3D-rendered Z-stack image on the right. (B) Fluorescence intensity line profiles measured across the ROI at three representative z-depths (bottom, middle, and top slice).

[1] = Post-translational modification analysis of methionine oxidation (tims-TOF MS/MS); assay type: physicochemical; settings: native peptide from aqueous extract
Description: The primary sequences of cocotides from Theobroma cacao aqueous extracts were determined by LC-MS/MS sequencing as described previously. The C18-SPE fractionated Theobroma cacao aqueous extracts were redissolved in 20 mM DTT at 37 °C for 1 h followed by S-alkylation with 200 mM iodoacetamide at 37 °C for 1 h. The mixture was desalted with a C18 Zip-tip and subjected to analysis on a trapped ion mobility spectrometer-time-of-flight tandem mass spectrometer (tims-TOF MS/MS). Data analysis was performed using PEAKS Studio (version 11, Bioinformatics Solutions, Waterloo, ON, Canada) with a precursor ion tolerance of 10 ppm and a fragment ion tolerance of 0.05 Da. Carbamidomethylation at Cys was set as a fixed modification. Deamidation of […], oxidation of Met, and acetylation at Lys and N-term were set as variable modification. Peptide sequencing was performed using PEAKS DB protein identification, which integrates database search of an in-house ginsentide-like peptide library derived from Theobroma cacao transcriptome with de novo sequencing.

[2] = Ferric Reducing Antioxidant Power (FRAP) assay; settings: OxiSelect FRAP Assay Kit
Description: OxiSelect Ferric Reducing Antioxidant Power (FRAP) Assay Kit (Cell Biolabs, USA) was used to measure the antioxidant potential of cocotide tC1. The assay was performed according to the manufacturer’s instructions .

pepsin = assay: Peptide stability assay with pepsin (RP-HPLC); assay type: in vitro ADME; settings: pepsin 50:1 (w/v) in 0.2 M HCl, 37 °C, 6 h; peptide 0.1 M [sic]; RP-HPLC peak area as % of initial
Description: (§1) Stability studies were conducted using purified cocotide tC1 (0.1 M) and S-alkylated tC1 (iodoacetamido) under specific buffer conditions. Pepsin stability was assessed by incubating the samples in a mixture of pepsin at a ratio of 50:1 (w/v) in 0.2 M HCl at 37 °C. For trypsin stability, the samples were treated with trypsin in 0.1 M ammonium bicarbonate buffer (pH 8) at 37 °C. Analysis of stability assays involved collecting samples at various time points, which were then analyzed by reversed-phase high-performance liquid chromatography (RP-HPLC) using a linear gradient of mobile phase A (0.05% trifluoroacetic acid in water) and mobile phase B (0.05% trifluoroacetic acid in acetonitrile) on an Aeris Peptide XB-C18 column (Phenomenex). The stability results were expressed as a percentage of the initial concentration and determined by the peak area of the HPLC profile.
(§2) 7 Proteolytic stability assays of cocotide tC1. Cocotide tC1 was incubated with either pepsin or trypsin at 37 °C for up to 6 h. S-alkylated tC1 was used as the control. At different time points, samples of cocotide tC1 and the control were quantified using reversed-phase high pressure liquid chromatography (RP-HPLC). The relative peak areas of the RP-HPLC profiles were used to quantify the percentage of peptides remaining after incubation with pepsin or trypsin.

trypsin = assay: Peptide stability assay with trypsin (RP-HPLC); assay type: in vitro ADME; settings: trypsin in 0.1 M ammonium bicarbonate buffer pH 8, 37 °C, 6 h; peptide 0.1 M [sic]; RP-HPLC peak area as % of initial
Description: as §1, §2

With `CC[C@H](C)[C@@H]1NC(=O)CNC(=O)[C@H](CCSC)NC(=O)[C@@H]2CCCN2C(=O)[C@H](Cc2ccc(O)cc2)NC(=O)[C@H](CC(C)C)NC(=O)[C@@H]2CSSC[C@@H]3NC(=O)[C@H](Cc4ccccc4)NC(=O)CNC(=O)CNC(=O)[C@H](C)NC(=O)[C@H](CO)NC(=O)[C@H](CC(C)C)NC(=O)[C@@H](NC(=O)[C@@H](N)CCCCNC(=O)c4ccc5c(c4)C(=O)OC54c5ccc(O)cc5Oc5cc(O)ccc54)CSSC[C@@H]4NC(=O)[C@H](CSSC[C@H](NC1=O)C(=O)N[C@@H](Cc1ccc(O)cc1)C(=O)NCC(=O)N[C@@H](CO)C(=O)NCC(=O)N[C@H](C(=O)O)CSSC[C@H](NC(=O)[C@H](CC(N)=O)NC(=O)CNC4=O)C(=O)NCC(=O)N2)NC(=O)[C@H](CC(=O)O)NC(=O)[C@H](CCSC)NC(=O)[C@@H]1CCCN1C(=O)[C@H](CC(N)=O)NC(=O)[C@H](Cc1ccccc1)NC(=O)[C@H](CCSC)NC3=O` [FAM-tC1] (H-K(5FAM)CLSAGGFCMFNPMDCCGNCGCLYPMGICYGSGC-OH; disulfide 2-17, 9-22, 16-29, 20-34) the “fluorescent signal in the nucleus” value (HaCaT keratinocytes) was “no fluorescent signals were detected in the nucleus” and the “cell penetration (internalization)” value (HaCaT keratinocytes; serum-free medium) was “readily penetrates the cells”.
With “CLSAGGFCVFNPMDCCGNCGCLYPMGICYGSGC (disulfide (positions not given here)) [cocotide tC7, ginsentide-like cysteine-rich peptide found in T. cacao aqueous extract]” the methionine oxidation pattern [1] was “minimal oxidation”.
For “CLSAGGFCMFIPMDCCGNCGCLFPMGFCYGSGC (disulfide (positions not given here)) [cocotide tC2, ginsentide-like cysteine-rich peptide found in T. cacao aqueous extract]”, the methionine oxidation pattern [1] was “Met9 was more prone to oxidation than Met13”.
With `O=C1O[C@H]([C@@H](O)CO)C(O)=C1O` [ascorbic acid, reference compound] the FRAP value [2] was 0.36 Fe^2+ μM/μM.
For `CC[C@H](C)[C@H](NC(=O)CNC(=O)[C@H](CCSC)NC(=O)[C@@H]1CCCN1C(=O)[C@H](Cc1ccc(O)cc1)NC(=O)[C@H](CC(C)C)NC(=O)[C@H](CSCC(N)=O)NC(=O)CNC(=O)[C@H](CSCC(N)=O)NC(=O)[C@H](CC(N)=O)NC(=O)CNC(=O)[C@H](CSCC(N)=O)NC(=O)[C@H](CSCC(N)=O)NC(=O)[C@H](CC(=O)O)NC(=O)[C@H](CCSC)NC(=O)[C@@H]1CCCN1C(=O)[C@H](CC(N)=O)NC(=O)[C@H](Cc1ccccc1)NC(=O)[C@H](CCSC)NC(=O)[C@H](CSCC(N)=O)NC(=O)[C@H](Cc1ccccc1)NC(=O)CNC(=O)CNC(=O)[C@H](C)NC(=O)[C@H](CO)NC(=O)[C@H](CC(C)C)NC(=O)[C@@H](N)CSCC(N)=O)C(=O)N[C@@H](CSCC(N)=O)C(=O)N[C@@H](Cc1ccc(O)cc1)C(=O)NCC(=O)N[C@@H](CO)C(=O)NCC(=O)N[C@@H](CSCC(N)=O)C(=O)O` [S-alkylated cocotide tC1, reference compound] (H-C(Cam)LSAGGFC(Cam)MFNPMDC(Cam)C(Cam)GNC(Cam)GC(Cam)LYPMGIC(Cam)YGSGC(Cam)-OH), the “structural integrity retained (percentage of peptide remaining) after incubation with pepsin” value (pepsin) was “degraded rapidly” and the “structural integrity retained (percentage of peptide remaining) after incubation with trypsin” value (trypsin) was “degraded rapidly”.
